In one series the test system is normal rat brain tissue. The series can be described thus: H&E and TUNEL staining of brain sections of normal non-ischemic rats after IN inoculation. To be noted: H&E and TUNEL stained sections, N = 6 per group. The format is in vivo. As to the method: Brain pathology was analyzed by incubating 2 mm thick brain slices in 2% 2,3,5-triphenyltetrazolium chloride (TTC staining, Sigma) and measuring the infarct volume after fixation using Image J software as previously described. Paraffin-embedded brain sections were also subjected to H&E staining and immunohistochemistry after with an antibody to rat Fas (ab82419, Abcam). Apoptosis in de-paraffinized, rehydrated brain sections was analyzed by TUNEL staining using the In Situ Cell Death Detection Kit (Roche, Germany) in accordance with the manufacturer’s instructions.
(A) Regional cerebral blood flow (rCBF) in rat’s subject to MCAO. The cerebral blood flow was measured during ligation of CCA, occlusion of MCA and after reperfusion (N=6 per group) and a 9 fold reduction was considered as a confirmation of ischemic stroke injury. (B) Bio-distribution of IN inoculated ctr-FBP-A488 or FBP-A488 at the indicated time points in normal non-ischemic rats that constitute a control group (N=3 per group). Mock treated animals were inoculated with PBS. (C) Representative hematoxylin and eosin (H&E) (upper panel) and TUNEL (lower panel) stained paraffin embedded sections from normal rat inoculated with PBS (Mock), ctr-FBP or FBP […]
change in tissue morphology and toxicity. Scale bare represents 100µm. ctr-FBP-A488- Alexa488 labeled control peptide, FBP-A488- Alexa488 labeled Fas-blocking peptide.

Series [1] in a line: Brain biodistribution of intranasally inoculated A488-labeled peptide in normal and MCAO rats. The format is in vivo, Sprague–Dawley rats. To be noted: intranasal (POD), MCAO rats; fluorescence imaging. The source says: Figure 3 IN delivered FBP localizes to Fas-expressing brain regions in the MCAO rat model of focal ischemia. (A) Immunohistochemistry for Fas expression in ischemic rat brain after MCAO. Representative images of deparaffinized coronal brain sections from normal or ischemic rats stained with anti-Fas antibody at the designated times post-MCAO are shown. Representative images (upper panel) and cumulative data (lower panel) depicting fluorescence intensities measured in arbitrary pixel values relative to that at the 12 h ‘normal’ rats. Scale bar = 50 µm. The data represent mean ± SD (N = 6 per group). *P < 0.05 at individual time-points, Mann-Whitney U test, ^###P < 0.001; Cumulative data, Two-way ANOVA. […] Representative images (upper panel) and cumulative data (lower panel) depicting fluorescence intensities measured in arbitrary pixel values relative to and normalized based on fluorescence intensities in normal group. […]
For bio-distribution studies, A488-conjugated FBP was intranasally (IN) administered at 500 μg (1.4 mg/kg) in a final volume of 50 μL (25 μL in each nare) using the POD at 12 h post-MCAO and fluorescence analyzed at designated time points in isolated organs using Image Station 4000 mm (Carestream Rochester, NY) or by flow cytometry of single cell suspensions on a FACS Calibur™ (BD Bioscience, San Jose, CA) and analyzed using the Flowjo software. […]

Peptide text beside a SMILES is read from it.

On to `N[C@@H](Cc1ccc(O)cc1)C(=O)N[C@@H](CS)C(=O)N[C@@H](CC(=O)O)C(=O)N[C@@H](CCC(=O)O)C(=O)N[C@@H](Cc1c[nH]cn1)C(=O)N[C@@H](Cc1ccccc1)C(=O)N[C@@H](CS)C(=O)N[C@@H](Cc1ccc(O)cc1)C(=O)O` [FBP] (H-YCDEHFCY-OH), for which the “Change in brain tissue morphology and toxicity in normal rats” value in the series on normal rat brain tissue was “did not shows any change in tissue morphology and toxicity”.

Regarding `CC(C)[C@H](NC(=O)[C@@H](NC(=O)[C@H](CO)NC(=O)[C@H](CC(N)=O)NC(=O)[C@H](CS)NC(=O)[C@@H](N)Cc1ccc(O)cc1)[C@@H](C)O)C(=O)N[C@@H](CS)C(=O)N[C@@H](Cc1ccc(O)cc1)C(=O)O` [ctr-FBP] (H-YCNSTVCY-OH), the “Change in brain tissue morphology and toxicity in normal rats” value in the series with normal rat brain tissue is “did not shows any change in tissue morphology and toxicity”. The “Clearance of peptide from brain after IN delivery” value in series [1] is on record as “cleared within a few hours of treatment”.

The values are drawn from paper PMC6178348, “Intranasal delivery of a Fas-blocking peptide attenuates Fas-mediated apoptosis in brain ischemia” (Scientific Reports, 2018).
